Results: patent publication US12496287B2, “Compositions and methods for treating macrophage activation syndrome” (THE CHILDREN'S HOSPITAL OF PHILADELPHIA, priority 2019, dated 2025)
Counter-ions that a name gives are not always drawn.

Columns and labels:
[1] = low dose CO (100-125 ppm); patients with idiopathic pulmonary fibrosis or COPD; cited from earlier work
[2] = target: T1, HO-1 (Mus musculus, UniProt P14901); experiment: Cytokines in supernatants of CpG-stimulated BMDMs treated with ZnPP and/or CORM2 (ELISA); assay type: cell-based
T1 construct: endogenous in cells; host or cells: mouse bone marrow derived macrophages (BMDM)
T1 sequence (P14901 1-289): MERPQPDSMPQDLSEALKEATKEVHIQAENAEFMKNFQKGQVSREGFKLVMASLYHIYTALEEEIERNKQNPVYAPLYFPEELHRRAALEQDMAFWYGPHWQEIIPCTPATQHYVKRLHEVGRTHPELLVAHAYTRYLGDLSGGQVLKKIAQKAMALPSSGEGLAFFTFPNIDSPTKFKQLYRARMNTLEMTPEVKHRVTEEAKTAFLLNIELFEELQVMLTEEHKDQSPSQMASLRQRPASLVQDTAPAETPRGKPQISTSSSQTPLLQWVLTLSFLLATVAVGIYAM
Procedure: Bone marrow (BM) was extracted from the hind limbs of mice and filtered over a 70-μm strainer to obtain a single cell suspension, followed by RBC lysis. Bone marrow derived macrophages (BMDM) were derived by culture in M-CSF-enriched media of L929 cells. RAW264.7 cells were obtained from ATCC (Manassas, VA). Class B CpG1826 oligonucleotide was synthesized by Integrated DNA Technologies (Coralville, IA). Macrophages were treated with CpG (1 μg/ml) for 18 to 20 hours for cytokine analysis in cell supernatant, and for 0 to 2 hours for analysis of protein expression level by Western blot treated as indicated.
(§1) TLR9 activation induced cytokines from cells supernatants and serum were measured by using the ELISA kits from BD OptEIA™ (Cat nos. IL-12: 555256, IL-10: 555252, TNFα: 555268 and IL-6: 555240; Franklin Lakes, NJ).

[3] = tested on: TLR9-MAS murine model; experiment: TLR9-MAS murine model (repeated CpG), MMF treatment, C57BL/6 mice; assay type: in vivo, mouse
Procedure: (§2) MAS was induced by repeated activation of TLR9 as described (Behrens, et al. (2011) J. Clin. Invest., 121(6):2264-77; Weaver, et al. (2016) Proc. Natl. Acad. Sci., 113(39):10944-9). Briefly, 8-week old mice were injected with five doses of PBS or 50 μg of CpG1826 intraperitoneally every other day for 9 days, while MMF (cat no: 4511, TOCRIS (Bristol, UK)) in DMSO was injected at 45 mg/Kg body weight based on standard dosing used in other murine studies (Cho, et al. (2015) J. Neuroinflammation 12:239; Yao, et al. (2016) Transl. Stroke Res., 7(6):535-47), every day once in the morning and once in the evening. The control group received DMSO instead of MMF. On day-10 mice were euthanized 24 hours after the last MMF injection, bled terminally to collect blood for complete blood count (CBC) and differential count, and serum for cytokine analysis by ELISA. Spleens and livers were harvested and were formalin fixed followed by paraffin embedment for tissue sectioning and slide preparation for histology and immunohistochemistry (IHC). To obtain single suspension of spleen leukocytes, spleens at 37° C. were disrupted and incubated in the presence of DNAase and collagenase, followed by filtering over 70-μm strainers and RBC lysis. The cells were counted and then adhered for 2 hours on petri dishes to obtain plastic adherent macrophages. TLR9 activation induced cytokines from cells supernatants and serum were measured by using the ELISA kits from BD OptEIA™ (Cat nos. IL-12: 555256, IL-10: 555252, TNFα: 555268 and IL-6: 555240; Franklin Lakes, NJ).

[4] = tested on: TLR9-MAS; experiment: TLR9-MAS in HMOX1^WT and HMOX1^fl/fl mice, MMF treatment; assay type: in vivo, mouse
Excerpt: C57BL/6 (WT) and LysM-Cre mice were purchased from The Jackson Laboratory (Bar Harbor, ME). HMOX1^fl/fl mice were crossbred with LysM-Cre mice and genotyped regularly to obtain mice with deletion of the HO-1 gene in myeloid lineage and are designated as: HMOX1^WT (intact HO-1), HMOX1^WT/fl (x LysM-cre, HO-1-haplodeficient,), and HMOX1^fl/fl (x LysM-Cre, complete HO-1-deficiency).
as §2, with “macrophages.” for “macrophages. TLR9 activation induced cytokines from cells supernatants and serum were measured by using the ELISA kits from BD OptEIA™ (Cat nos. IL-12: 555256, IL-10: 555252, TNFα: 555268 and IL-6: 555240; Franklin Lakes, NJ).”
Slides from paraffin-embedded tissue sections were stained with hematoxylin and eosin or were immune-stained for HO-1 (cat no. ADI-SPA-896, Enzo), followed by nuclear stain using prolong gold antifade reagent with Dapi (P36931, Invitrogen (Carlsbad, CA)). Images were acquired on an Eclipse 90i microscope (Nikon (Melville, NY)) using NIS-ELEMENTS software.
as §1

[5] = tested on: Nrf2/HO-1; experiment: MMF induction of Nrf2 and HO-1 in macrophages of injected mice (Western blot); assay type: in vivo, mouse
Procedure: as §2, with “On day-10 mice were euthanized 24 hours after the last MMF injection, bled terminally to collect blood for complete blood count (CBC) and differential count, and serum for cytokine analysis by ELISA.” left out, “macrophages.” for “macrophages. TLR9 activation induced cytokines from cells supernatants and serum were measured by using the ELISA kits from BD OptEIA™ (Cat nos. IL-12: 555256, IL-10: 555252, TNFα: 555268 and IL-6: 555240; Franklin Lakes, NJ).”
Protein samples (10-12 μg) were resolved by SDS-PAGE on 4-12% Bis-Tris gels (Invitrogen), electrotransferred to nitrocellulose membranes (Cat no. 10484060, Bio-Rad (Hercules, CA)), and assessed for the immunosignal of proteins using the antibodies against HO-1 (cat no. ADI-SPA-896, Enzo (Farmingdale, NY)), Nrf2 (Cat no. 12721, Cell Signaling (Danvers, MA)), Erk (Cat no. 4695, Cell signaling), pErk (Cat no. 4379, Cell Signaling), Cyclophilin B (CyPB, Cat no. PA1-027A, ThermoFisher Scientific), β tubulin (Cat no. 2146, Cell Signaling), β actin (Cat No. 66009-1-Ig, Proteintech (Rosemont, IL)), Calnexin (Cat no. ab22595, abcam (Cambridge, UK) and Histone 3 (Cat no. 4499, Cell Signaling). Fluorescence tagged respective secondary antibodies obtained from Li-COR (Lincoln, Neb.)—Goat-anti-Rabbit-antibody (IRDye® 800CW), or Donkey-anti-mouse-antibody (IRDye® 800CW) or Donkey anti-Mouse IgG (IRDye® 680RD) were then used. […]

[6] = tested on: HO-1; experiment: Splenic HO-1 expression in vivo after repeated CpG treatment (IHC, Western blot); parameters: species or system mouse; conditions: IFNγ alone, intraperitoneally, IFNγ-/- mice
Procedure: as §2, with “TLR9 activation induced cytokines from cells supernatants and serum were measured by using the ELISA kits from BD OptEIA™ (Cat nos. IL-12: 555256, IL-10: 555252, TNFα: 555268 and IL-6: 555240; Franklin Lakes, NJ).” left out

[7] = day 10, MMF twice a day, CpG every other day
[8] = spleen plastic adherent macrophages, MMF i.p. every 12 hours, 3 doses, 4 hours after last dose

## [C-]#[O+] [CO, carbon monoxide]
[1]
  tolerability: tolerated

## [C-]#[O+].[C-]#[O+].[C-]#[O+].[C-]#[O+].[C-]#[O+].[C-]#[O+].[Cl][Ru][Cl].[Cl][Ru][Cl] [CORM2, carbon monoxide-releasing molecule [CORM] 2]
[2]; CORM2 in BMDM not inhibited by ZnPP or genetically sufficient for HO-1
  IL-10: no additional effect
[2]; CORM2 in HMOX1^fl/fl BMDMs
  IL-10: rescue
[2]; CORM2 in ZnPP treated BMDMs, CpG 1 μg/ml
  IL-10 levels: restored IL-10 levels to normal

## COC(=O)/C=C/C(=O)O [MMF, monomethyl fumarate]
[3]; MMF + CpG
  cellularity in spleen: reduced cellularity
  organomegaly of liver: reduced
  organomegaly of spleen: reduced
[3]; day 10, MMF 45 mg/Kg twice a day, CpG every other day
  serum IL-10: significantly higher
[3]; day 10, MMF + CpG
  erythrocyte count in blood: corrected
  platelet count in blood: corrected
[3]; [7]
  serum IFNγ: drop
  serum IL-12: drop
[4]; CpG treated HMOX1^WT mice
  serum IL-10 elevation: 3 fold
[4]; CpG treated HMOX1^fl/fl mice
  serum IL-10 elevation effect: completely lost
[4]; CpG treated HMOX1 mice
  serum IFNγ: unaffected
[4]; CpG treated HMOX1 mice, HO-1 independent
  serum IL-12: slightly reduced
[4]; HMOX1^WT mice
  recovery from anemia (RBC): almost complete recovery
  recovery from thrombocytopenia (platelets): almost complete recovery
[4]; HMOX1^fl/fl mice
  hepatosplenomegaly: partially protected
  recovery from anemia (RBC): partial recovery
  recovery from thrombocytopenia (platelets): partial recovery
[4]; both WT and HMOX1^fl/fl mice
  lobular inflammatory score (liver): reduce
  portal inflammatory score (liver): reduce
[4]; independent of mouse genotype
  histologic evidence of endothelial activation: reduce
[5]; MMF treatment
  HO-1 expression in splenic and peritoneal macrophages: increased
[5]; [8]
  HO-1 immunosignal relative to DMSO control: significantly increased
  Nrf2 immunosignal relative to DMSO control: significantly increased

## C=CC1=C(C)c2cc3[n-]c(cc4nc(cc5[n-]c(cc1n2)c(C)c5C=C)C(C)=C4CCC(=O)O)c(CCC(=O)O)c3C.[Zn+2] [ZnPP, zinc protoporphyrin]
[2]; ZnPP 3 μM, BMDMs
  IL-6 in response to CpG: increased levels
  TNFα in response to CpG: increased levels
[2]; ZnPP 3 μM, BMDMs stimulated with CpG
  production of IL-10: substantially reduced
[2]; ZnPP, CpG-treated HMOX1^WT BMDM
  IL-10: blocked
[2]; ZnPP, CpG-treated HMOX1^fl/fl BMDM
  residual IL-10: without showing any effect

B1: IFNγ: interferon gamma added back intraperitoneally to IFNγ-/- mice (protein, UniProt P01580 23-155, looked up)
Interferon gamma: HGTVIESLESLNNYFNSSGIDVEEKSLFLDIWRNWQKDGDMKILQSQIISFYLRLFEVLKDNQAISNNISVIESHLITTFFSNSKAKKDAFMSIAKFEVNNPQVQRQAFNELIRVVHQLLPESSLRKRKRSRC
[6]
  HO-1 induction in spleen: did not induce HO-1
